Test results taken from ChEMBL document CHEMBL5154680, “Seco and Nor-seco Isodhilarane-Type Meroterpenoids from Penicillium purpurogenum and the Configuration Revisions of Related Compounds” (J Nat Prod, 2022).
Active and inactive are the calls of the source. The calls are words filed in the database; no cut-off is given here.

Key:
Assay type in all cases: functional, cell-based
HepG2 [1] = assay: Cytotoxicity against human HepG2 cells assessed as reduction in cell viability incubated for 24 hrs by MTT assay; conditions: HepG2, 24 h
A549 = assay: Cytotoxicity against human A549 cells assessed as reduction in cell viability incubated for 24 hrs by MTT assay; conditions: A549, 24 h
HepG2 [2] = assay: Hepatoprotective activity against APAP-induced toxicity in human HepG2 cells assessed as cell survival rate at 10 uM incubated for 48 hrs by MTT assay

SMILES | IC50 (HepG2 [1]) | IC50 (A549) | Activity (HepG2 [2])
C[C@H]1O[C@@H]2OC(=O)[C@]3(C)C[C@@H]4[C@](C)(C(=O)C=C5C(=CC(=O)OC5(C)C)[C@@]45CO5)[C@H](C1=O)[C@]23O | 5.58 µM | 6.8 µM | 
C[C@H]1O[C@@H]2OC(=O)[C@]3(C)C[C@@H]4[C@@]5(C)C(=C1O[C@H]5C=C1C(=CC(=O)OC1(C)C)[C@@]41CO1)[C@]23O |  |  | Active
COC(=O)[C@]12C(=O)[C@@H](C)O[C@@H]3OC(=O)[C@](C)(C[C@H]4[C@]5(CO5)C5=CC(=O)OC(C)(C)[C@]56O[C@@H]6C[C@@]41C)[C@@H]32 |  |  | Active
C[C@H]1O[C@@H]2OC(=O)[C@]3(C)C[C@@H]4[C@](C)(C(=O)C=C5C(=CC(=O)OC5(C)C)[C@@]45CO5)[C@H](C1=O)[C@H]23 |  |  | Active
COC(=O)[C@]12C(=O)[C@@H](C)O[C@@H]3OC(=O)[C@](C)(C[C@H]4[C@]5(CO5)C5=CC(=O)OC(C)(C)C5=CC[C@@]41C)[C@@H]32 |  |  | Active
COC(=O)[C@]12C(=O)[C@@H](C)O[C@@H]3OC(=O)[C@](C)(C[C@@H]4[C@]1(C)CC=C1C(=CC(=O)OC1(C)C)[C@@]4(C)O)[C@@H]32 |  |  | Active
